Measurements published in article PMC10079702, “Study of the inhibition effects on glutathione peroxidase immobilized on MNPs using a stopped-flow microfluidic system” (Analytical and Bioanalytical Chemistry, 2023).

Molecular target: T1, glutathione peroxidase (GPx) (Bos taurus, UniProt P00435)
T1 construct: gene GPX1; selenoprotein; EDC-coupled to magnetic nanoparticles for the assay
T1 sequence (P00435 1-205): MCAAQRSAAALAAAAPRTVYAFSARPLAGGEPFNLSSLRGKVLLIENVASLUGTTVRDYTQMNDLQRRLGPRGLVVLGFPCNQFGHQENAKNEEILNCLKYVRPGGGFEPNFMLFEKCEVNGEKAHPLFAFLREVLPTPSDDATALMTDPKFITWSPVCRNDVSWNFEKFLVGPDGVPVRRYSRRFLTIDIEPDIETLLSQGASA
Assay: stopped-flow microfluidic fluorimetry of competing homovanillic acid dimerization, Lineweaver-Burk
Type: biochemical
Settings: GPx immobilized on magnetic nanoparticles; GSH, H2O2, HVA; Tris-HCl 50 mmol/L pH 9, 30 °C; stated non-competitive; listed as at 1 µmol/L inhibitor; printed unit is not a concentration
Excerpt: stopped-flow microfluidic fluorimetry of competing homovanillic acid dimerization, Lineweaver-Burk on glutathione peroxidase (GPx)

## CC(C)(C)OO [t-butyl hydroperoxide]
  KI: 117.09 µmol/L/s
